Reference: PMC8913810, “New insights into the resistance mechanism for the BceAB-type transporter SaNsrFP” (Scientific Reports, 2022)
Where two headings read alike, the source gives them in different places. Bridge positions count the residues as written; N and C are the ends. Square brackets hold non-standard residues; d marks the D form. Peptide text beside a SMILES is read from it. * marks the point of attachment. Ileψ(thiazoline)Cys = CC[C@H](C)[C@H](N)C1=N[C@H](C(=O)*)CS1; dOrn = NCCC[C@@H](N)C(=O)O

Experiments:
L. lactis NZ9000NsrFP [1] = details: fold changes described earlier for SaNsrFP; ref 34 (Reiners et al.); cited from earlier work
From the text: No significant differences were detected between NZ9000NsrFP and NZ9000NsrFH202AP with ramoplanin. […] IC50 values decreased to similar levels in L. lactis NZ9000SaNsrFH202AP (one, two ...

SaNSRS236A = system: SaNSRS236A; design: method as in earlier work; details: low-level resistance; ref 32 (Khosa et al.); cited from earlier work
L. lactis NZ9000NisT [2] = details: for Fold of resistance L. lactis NZ9000NisT: IC50 of NZ9000NisT relative to NZ9000Cm; for IC50: read-out: IC50 (nM) L. lactis NZ9000NisT, GM17, 5 µg/ml chloramphenicol, 0.3 nM nisin, 30 °C, 5 h, optical density
L. lactis NZ9000Cm [3] = details: read-out: IC50 (nM) L. lactis NZ9000Cm; GM17, 5 µg/ml chloramphenicol, 0.3 nM nisin, 30 °C, 5 h, optical density; at least 3 biological replicates with 3 technical replicates each
Experimental: (§1) After adding the different antibiotics to the cultures of the strains L. lactis wild type (WT), L. lactis NZ9000Cm, L. lactis NZ9000SaNsrFP and L. lactis SaNsrFH202AP, the IC50 was determined.
(§2) The half maximal inhibitory concentration was determined according to Abts et al.[71]. Briefly, L. lactis NZ9000Cm, L. lactis NZ9000SaNsrFP and L. lactis NZ9000SaNsrFH202AP cells were grown in GM17 medium containing 5 µg/ml chloramphenicol and 0.3 nM nisin at 30 °C overnight. Fresh GM17Cm medium with a sublethal amount of nisin (0.3 nM) was inoculated with overnight cultures to an OD600 of 0.1. A 96-well plate was prepared with a serial dilution of examined antibiotics (concentration ranges ramoplanin 0.014 nM–3.75 µM; lysobactin 0.002 nM–10 µM; vancomycin 0.02 nM–80 µM; nisin 0.0001 nM–0.5 µM) and subsequently the cell culture was added and plates were incubated at 30 °C for 5 h. Afterwards, the optical density was measured, and the IC50 values for each strain and antibiotic were calculated.

[4] = system: L. lactis NZ9000NsrFH202AP; details: for Fold of resistance L. lactis NZ9000NsrFH202AP: IC50 of NZ9000NsrFH202AP divided by IC50 of NZ9000Cm; for IC50: read-out: IC50 (nM) L. lactis NZ9000NsrFH202AP, GM17, 5 µg/ml chloramphenicol, 0.3 nM nisin, 30 °C, 5 h, optical density, at least 3 biological replicates with 3 technical replicates each
Experimental: as §1, §2

L. lactis NZ9000NsrFP [5] = details: for Fold of resistance L. lactis NZ9000NsrFP: IC50 of NZ9000NsrFP divided by IC50 of NZ9000Cm; for IC50: read-out: IC50 (nM) L. lactis NZ9000NsrFP, GM17, 5 µg/ml chloramphenicol, 0.3 nM nisin, 30 °C, 5 h, optical density, at least 3 biological replicates with 3 technical replicates each
Experimental: as §1, §2

[6] = system: L. lactis NZ9000SaNsrFH202AP; experiment: Growth curve, ATP-hydrolysis deficient mutant strain; assay type: cell-based, Lactococcus lactis; details: 4 µM bacitracin without ZnCl2; 0.3 nM nisin; monitored over 500 min
From the text: (§3) To investigate whether SaNsrFP confers resistance against bacitracin and Zn-bacitracin, binding to the lipid carrier UPP[20],[52], we analyzed the influence of the expression of the sansrfp gene. The sensitive L. lactis strain NZ9000, served as an indicator strain for these studies which was transformed with a plasmid encoding the nsrfp gene. We included two controls where the strains were transformed with (I) an empty plasmid (L. lactis NZ9000Cm) (II) a plasmid containing a variant of the nsrfp gene (L. lactis NZ9000SaNsrFH202AP)[34]. This NZ9000SaNsrFH202AP strain is used since the transporter carries a mutation in the H-loop, a highly conserved region of ABC transporters, and as a result is not able to hydrolyze ATP[47]. […] The growth of L. lactis NZ9000Cm, L. lactis NZ9000SaNsrFP, L. lactis NZ9000SaNsrFH202AP and L. lactis NZ9000NisT was monitored online over a time period of 500 min (Fig. 2a,b). After adding the different antibiotics to the culture, the growth curve was determined. […]
(§4) To detect the growth behavior of the different strains, precultures of L. lactis NZ9000Cm, L. lactis NZ9000SaNsrFP and L. lactis NZ9000SaNsrFH202AP cells were grown in GM17 medium with 5 or 10 µg/ml chloramphenicol and 0.3 nM nisin at 30 °C overnight. […] Growth was detected at OD584 every 10 min with a FLUOstar OPTIMA (BMG Lab technology).

L. lactis NZ9000SaNsrFP [7] = experiment: Cytoplasmic PGN precursor accumulation (HPLC/MS), SaNsrFP-producing strain; assay type: cell-based, Lactococcus lactis; details: bacitracin 100 µg/ml added at OD600 1.2, 30 min at 30 °C, repeated once; HPLC/MS EIC 1148.4 and 1263.4
Experimental: (§5) Cells were grown in M17 medium supplemented with 0.5% glucose and 0.3 nM nisin overnight at 30 °C without shaking. The next day, 100 ml with 0.5% glucose and 0.3 nM nisin was inoculated with overnight cultures to OD600 = 0.1. When OD600 = 1.2 bacitracin (100 µg/ml) was added to the cultures to enrich cell wall precursors, and the cultures were incubated for an additional 30 min at 30 °C. This step was repeated once. (As a control, a second culture each was harvested before bacitracin was added at an OD600 = 1.2, and cell pellets were stored at − 20 °C) After incubation with bacitracin, the cells were harvested, and the cell pellets were stored at − 20 °C. The next day, the cell pellets were resuspended in 25 ml water and cooked for 60 min in boiling water to break the cells. Cell debris was removed by centrifugation (15 min, 500×g, 4 °C). […]
(§6) Five microliters of each sample were injected into an XCT6330 LC/MSD ultratrap system (Agilent Technologies) equipped with a Nucleosil 100 C18 column (3 μm × 100 mm × 2 mm internal diameter, Dr. Maisch GmbH). […] Extracted ion chromatograms (EICs) in negative ion mode for UDP-MurNAc-L-Ala-D-iGlu-L-Lys-D-Ala-D-Ala (m/z^−1 1148.34 ± 0.1) and UDP-MurNAc-L-Ala-D-iGlu-L-Lys-(D-Asp)-D-Ala-D-Ala (m/z^−1 1263.37 ± 0.1) were analyzed with Data Analysis (Bruker), exported and presented with GraphPad Prism 6.0.

[8] = system: L. lactis NZ9000SaNsrFH202AP; experiment: Cytoplasmic PGN precursor accumulation (HPLC/MS), ATP-hydrolysis deficient mutant strain; assay type: cell-based, Lactococcus lactis; details: bacitracin 100 µg/ml added at OD600 1.2, 30 min at 30 °C, repeated once; compared with NZ9000Cm
Experimental: as §5, §6

L. lactis NZ9000Cm [9] = experiment: Cytoplasmic PGN precursor accumulation (HPLC/MS), empty-plasmid strain; assay type: cell-based, Lactococcus lactis; details: bacitracin 100 µg/ml added at OD600 1.2, 30 min at 30 °C, repeated once; HPLC/MS EIC 1148.4 and 1263.4
Experimental: as §5, §6

L. lactis NZ9000Cm [10] = experiment: Growth curve, empty-plasmid strain; assay type: cell-based, Lactococcus lactis; details: 1 µM bacitracin + 1 mM ZnCl2 or 4 µM bacitracin without zinc; 0.3 nM nisin; monitored over 500 min, 30 °C
From the text: as §3, §4

L. lactis NZ9000NisT [11] = experiment: Growth curve, NisT-producing strain; assay type: cell-based, Lactococcus lactis; details: 1 µM bacitracin + 1 mM ZnCl2 or 4 µM bacitracin without zinc; 0.3 nM nisin; monitored over 500 min, 30 °C
From the text: as §3, §4

L. lactis NZ9000SaNsrFP [12] = experiment: Growth curve, SaNsrFP-producing strain; assay type: cell-based, Lactococcus lactis; details: 1 µM bacitracin + 1 mM ZnCl2 or 4 µM bacitracin without zinc; 0.3 nM nisin; compared with untreated control strain
From the text: as §3, §4

Compound | Fold of resistance conferred by SaNsrFP (L. lactis NZ9000NsrFP [1]) [fold] | Resistance against nisin, inactive protease variant SaNSRS236A (SaNSRS236A) [fold] | Fold of resistance L. lactis NZ9000NisT (L. lactis NZ9000NisT [2]) [fold] | IC50 (L. lactis NZ9000NisT [2]) [nM] | IC50 (L. lactis NZ9000Cm [3]) [nM] | Fold of resistance L. lactis NZ9000NsrFH202AP [4] [fold] | IC50 [4] [nM] | Fold of resistance L. lactis NZ9000NsrFP (L. lactis NZ9000NsrFP [5]) [fold] | IC50 (L. lactis NZ9000NsrFP [5]) [nM] | Growth behaviour of L. lactis NZ9000SaNsrFH202AP [6] | PGN precursor accumulation in the cytoplasm, L. lactis NZ9000SaNsrFP (L. lactis NZ9000SaNsrFP [7]) | Fold of resistance L. lactis NZ9000NsrFP (L. lactis NZ9000NsrFP [5]; listed as bacitracin) [fold] | PGN precursor accumulation in the cytoplasm, L. lactis NZ9000SaNsrFH202AP [8] | PGN precursor accumulation in the cytoplasm, L. lactis NZ9000Cm (L. lactis NZ9000Cm [9]) | Growth behaviour of L. lactis NZ9000Cm (L. lactis NZ9000Cm [10]) | Growth behaviour of L. lactis NZ9000NisT (L. lactis NZ9000NisT [11]) | Growth behaviour of L. lactis NZ9000SaNsrFP (L. lactis NZ9000SaNsrFP [12])
gallidermin | 12 | – | – | – | – | – | – | – | – | – | – | – | – | – | – | – | –
nisin | 16 | 2.6 | – | – | – | – | – | – | – | – | – | – | – | – | – | – | –
ramoplanin A2 | – | – | 1.3 ± 0 | 95 | 73 ± 18 | 1 ± 0 | 92 ± 21 | 2 ± 1 | 121 ± 34 | – | – | – | – | – | – | – | –
CC[C@H](C)[C@H](N)C1=N[C@H](C(=O)N[C@@H](CC(C)C)C(=O)N[C@H](CCC(=O)O)C(=O)N[C@H](C(=O)N[C@H]2CCCCNC(=O)[C@H](CC(N)=O)NC(=O)[C@@H](CC(=O)O)NC(=O)[C@H](Cc3cnc[nH]3)NC(=O)[C@@H](Cc3ccccc3)NC(=O)[C@H]([C@@H](C)CC)NC(=O)[C@@H](CCCN)NC2=O)[C@@H](C)CC)CS1 [Bacitracin, bacitracin] ({Ileψ(thiazoline)Cys}-L[dE]IK[dOrn]I[dF]H[dD]N; lactam 4-C (inferred); N-terminus assumed) | – | – | 1 ± 0 | 733 | 938 ± 94 | 13 | 12900 | 349 ± 65 | 328000 | reduced growth | no accumulation of the PGN precursors | 350 | reduced PGN precursor accumulation | presence of the characteristic PGN precursors | Severe growth inhibition | Severe growth inhibition | did not show reduced growth
CN[C@H](CC(C)C)C(=O)N[C@H]1C(=O)N[C@@H](CC(N)=O)C(=O)N[C@H]2C(=O)N[C@H]3C(=O)N[C@H](C(=O)N[C@H](C(=O)O)c4cc(O)cc(O)c4-c4cc3ccc4O)[C@H](O)c3ccc(c(Cl)c3)Oc3cc2cc(c3O[C@@H]2O[C@H](CO)[C@@H](O)[C@H](O)[C@H]2O[C@H]2C[C@](C)(N)[C@H](O)[C@H](C)O2)Oc2ccc(cc2Cl)[C@H]1O [Vancomycin, vancomycin] | – | – | 1 ± 0 | 133 ± 9 | 214 | 2 ± 1 | 325 ± 117 | 5 ± 1 | 1080 ± 264 | – | – | – | – | – | – | – | –
lysobactin | – | – | 1 ± 0 | 25 ± 3 | 30.7 | 3 ± 2 | 102 ± 52.2 | 6 ± 1 | 182 ± 37 | – | – | – | – | – | – | – | –
